Tested on: Cell-based prion protein 5' UTR reporter, plate reader
Test: prion protein 5' UTR mRNA inhibitors – cell-based, plate reader, cherry-picked samples, dose response (AID 504539)

| Structure (SMILES) | AC50 |
| --- | --- |
| COc1cccc(NC(=O)Nc2cccc(C(=O)O)c2)c1 | 645 nM |
| Cc1nc2cc(-c3ccccc3)sc2c(=O)n1N | 284 nM |
| CCC(=O)Nc1cc2nn(-c3ccc(C)cc3)nc2cc1C | 465 nM |
| COC(=O)C1CCC(=O)N1C(c1ccc(OC)cc1)c1cc(OC)c(OC)c(OC)c1 (configuration not stated) | 676 nM |
| CCN1CCN(Cc2ccc(NC(=O)c3ccc(C)c(NC(=O)c4cncc(-c5cccs5)c4)c3)cc2C(F)(F)F)CC1 | 156 nM |
| COc1ccc(N=CC2=C(O)c3ccccc3C2=O)c(OC)c1 | 1170 nM |
| COc1ccc(OC)c(-c2nnc3n2N=C(c2ccc(OC)c(OC)c2)CS3)c1 | 261 nM |
| COc1cccc2c1C(=O)c1c(O)c3c(c(O)c1C2=O)CC(O)(C(C)=NNC(=O)c1ccc(Cl)c(Cl)c1)CC3OC1CC(N)C(O)C(C)O1 (configuration not stated) | 1270 nM |
| Cc1ccc(-c2cc3c(N=O)c4ccccc4c-3n[nH]2)cc1 | 438 nM |
| CCCCCN1C=CC(=C2C(=O)c3ccccc3C2=O)C=C1 | 248 nM |
| CCn1c(C)nc2cc(-c3nc4n(n3)Cc3ccccc3-4)ccc21 | 44 nM |
| Cc1c(C(=O)OCC(C)C)[nH]c2c1C(=O)CC(c1ccco1)C2 (configuration not stated) | 1260 nM |
| COc1ccc(OC)c(-c2nnc3n2N=C(c2ccc(OC)c(OC4CCOC4)c2)CS3)c1 (configuration not stated) | 554 nM |
| COC(=O)c1[nH]c2c(c1C)C(=O)CC(c1cccc(OC)c1)C2 (configuration not stated) | 715 nM |
| Cc1ccc(C(=O)Nc2cnc3ccccc3c2)cc1 | 94 nM |
| COC(=O)Cc1ccc(NC(=O)c2ccc(C(C)(C)C)cc2)cc1 | 414 nM |
| CC(C)(C)C(=O)Nc1cc2nn(-c3ccccc3)nc2cc1Cl | < 38 nM |
| CC/C=C/CC(=O)N[C@@H](c1ccccc1)[C@@H](O)C(=O)O[C@H]1C[C@@]2(O)[C@@H](OC(=O)c3ccccc3)C3[C@](C)(C(=O)[C@H](OC(C)=O)C(=C1C)C2(C)C)[C@@H](O)C[C@H]1OC[C@@]31OC(C)=O (some centres not stated) | 368 nM |
| COc1ccc(-c2cc3nc(C)n(N)c(=O)c3s2)cc1 | 113 nM |
| C=C1C(=O)O[C@@H]2C[C@@H](C)[C@@H]3C=CC(=O)[C@@]3(C)[C@@H](O)[C@H]12 | 1580 nM |
| Cc1ccc(C(C)C)c(OCc2ccc(C(=O)N/N=C/c3cccc(O)c3O)cc2)c1 | 1510 nM |
| Cc1ccc(CCC(=O)Nc2ncc(Cc3cc(Cl)ccc3Cl)s2)o1 | 841 nM |

| Structure (SMILES) | AC50 |
| --- | --- |
| COc1cc(C2c3cc4c(cc3CC3COC(=O)N32)OCO4)cc(OC)c1OC (configuration not stated) | 861 nM |
| COc1ccc(-c2nsc3c(N4CCCCC4)ncnc23)cc1 | 1680 nM |
| Cc1nn(-c2ccccc2)c(C)c1/C=N/NC(=O)c1cc(-c2ccccc2)n[nH]1 | 783 nM |
| CC(=O)OC1C(O)C(C)OC(OC2C(OC(=O)C3CCC4C(C3)OC3(CC(OC(=O)/C=C/c5ccccc5)C(C)CO3)C43CO3)OC(C)C(O)C2OC(C)=O)C1O (configuration not stated) | 104 nM |
| COC1C(C)OC(OC2CC(C)(O)Cc3cc4c(c(O)c32)C(=O)c2c(O)cc3c(c2C4=O)OC2OC3(C)C(O)C(N(C)C)C2O)C(OC)C1(C)OC (configuration not stated) | 118 nM |
| CCC(C)(C)c1ccc(Oc2ccc(N)cc2)cc1 | 173 nM |
| Nc1ncnc2c(C3OC(CO)C(O)C3O)c[nH]c12 (configuration not stated) | 76 nM |
| CCCOC(=O)c1[nH]c2c(c1C)C(=O)CC(c1cccs1)C2 (configuration not stated) | 132 nM |
| CN(C)c1ccc(/C=N/Nc2cccc(C(=O)O)c2)cc1 | 547 nM |
| CCOC(=O)C(C)Oc1cccc2c(=O)n(CC(=O)NCc3ccccc3)ccc12 (configuration not stated) | 919 nM |
| COc1cc(SC)ccc1C(=O)Nc1ncc(C)s1 | 361 nM |
| O=C(O)c1cccc(N/N=C/c2cccs2)c1 | 349 nM |
| COc1cccc(N2CCN(C(=O)c3ccc(CS(=O)c4ccccc4C)o3)CC2)c1 (configuration not stated) | 1380 nM |
| COc1cc(C(=O)N2CCN(c3ccccc3)CC2)c2ccccc2n1 | 574 nM |
| C=Cc1cc(OC)c2c(c1)c(=O)oc1c2cc(OC)c2c(O)ccc(C3OC(C)C(O)C(C)(O)C3O)c21 (configuration not stated) | 211 nM |
| CC1CCCN(c2ccc([N+](=O)[O-])cc2C(=O)c2ccccc2)C1 (configuration not stated) | 1670 nM |
| O=C(Nc1nc2cc3c(cc2s1)OCCO3)c1ccco1 | 234 nM |
| Nc1ccc2oc(-c3cccc4ccccc34)nc2c1 | 826 nM |
| c1ccc(-c2noc(-c3ccc4ccccc4c3)n2)nc1 | 158 nM |
| COC(=O)c1nn(-c2ccc3c(c2)CCN3C(C)=O)cc1O | 300 nM |
| CC(=NNC(=S)N(Cc1ccccn1)Cc1ccccn1)c1cnccn1 | 878 nM |
| COc1ccc(-n2ncc3c(N4CCCCC4)ncnc32)cc1 | 661 nM |

| Structure (SMILES) | AC50 |
| --- | --- |
| Cc1cnc(NC(=O)c2ccc3c(c2)OCCO3)s1 | 159 nM |
| CC(=Nc1ccccc1)C1=C(O)C(Cc2ccc(O)cc2)NC1=O (configuration not stated) | 379 nM |
| COc1ccc(C2=Nn3c(nnc3-c3ccccc3OC)SC2)cc1OC1CCOC1 (configuration not stated) | 3560 nM |
| O=C(N/N=C/c1c[nH]c2ccccc12)c1[nH]c2ccc(Br)cc2c1-c1ccccc1 | 774 nM |
| CCOc1ccc(C(=O)O/N=C(\N)c2ccccn2)cc1 | 134 nM |
| COc1ccc(C(=O)Nc2nc3ccccc3s2)c(OC)c1 | < 38 nM |
| COc1c(C=O)c2c(c(OC)c1OC)-c1ccc(OC)c(=O)cc1C(NC(C)=O)CC2 (configuration not stated) | 300 nM |
| CCc1ccc(-c2cc(C(=O)Nn3cnnc3)c3ccccc3n2)cc1 | 510 nM |
| CC12CCC3C(CCC4(O)CC(O)CCC34C=NO)C1(O)CCC2C1=COC(=O)C1 (configuration not stated) | 160 nM |
| Cc1ccc(NC(=O)/C=C/c2ccco2)nc1 | 287 nM |
| CC1CCOC(=O)C=CC=CC(=O)OC2CC3OC4C5OC5(C)C(O)CC4(COC(=O)C1O)C2(C)C31CO1 (configuration not stated) | 148 nM |
| CC1CC(C)(O)CC(C(O)CC2CC(=O)NC(=O)C2)C1=O (configuration not stated) | 493 nM |
| O=c1c2ccccc2cnn1CCOc1ccccc1 | 354 nM |
| CCOc1ncccc1C(=O)N1CCN(c2cccc(C)c2C)CC1 | 517 nM |
| CC(C)(C)c1ccc(/C=N/Nc2cccc(C(=O)O)c2)cc1 | 2110 nM |
| CC(=O)N(/N=C1\Sc2ccccc2C1=O)c1ccc(C)cc1C | 4720 nM |
| CCc1ccn2cc(-c3cc(-c4ccccc4)no3)nc2c1 | 558 nM |
| CC1(C)CC[C@]2(C(=O)n3ccnc3)CC[C@]3(C)[C@H](C(=O)C=C4[C@@]5(C)C=C(C#N)C(=O)C(C)(C)[C@@H]5CC[C@]43C)[C@@H]2C1 | 808 nM |
| C=CCn1c(C)cc(C2=NNC(=NC(C)(C)C)SC2)c1C | 714 nM |
| O=C1/C(=C\c2ccc([N+](=O)[O-])cc2)CS(=O)(=O)C/C1=C/c1ccc([N+](=O)[O-])cc1 | 2060 nM |
| NC(=S)c1cn(C2OC(CO)C(O)C2O)c2ncnc(N)c12 (configuration not stated) | 1810 nM |
| NC1=C(Cl)C(=O)c2ccc(S(N)(=O)=O)cc2C1=O | 226 nM |

| Structure (SMILES) | AC50 |
| --- | --- |
| Cc1nc2ncccn2c1-c1csc(Nc2ccc(N(C)C)cc2)n1 | 168 nM |
| COc1ccc(/C=C2\SC(=S)N(CCCC(=O)NNC(=O)c3ccccc3O)C2=O)cc1 | 630 nM |
| Cc1ccc(NC(=O)O/N=C/c2c(C)nn(C(C)(C)C)c2C)cc1Cl | 270 nM |
| c1ccc(-c2noc(-c3ccc4c(c3)OCO4)n2)nc1 | 140 nM |
| CCOc1ccc(NC(=O)c2ccccn2)cc1 | 345 nM |
| COc1cc2cc(C(=O)N3CC(COS(C)(=O)=O)c4ccc(O)cc43)[nH]c2c(OC)c1OC (configuration not stated) | < 38 nM |
| CC(C)(O)/C=C/C(=O)[C@](C)(O)C1[C@H](O)C[C@@]2(C)C3CC=C4C(C[C@H](O)[C@@H](O)C4(C)C)[C@]3(C)C(=O)C[C@]12C (some centres not stated) | 900 nM |
| COC(=O)c1ccc(Oc2cc(C)nc(-n3nc(C)cc3C)n2)cc1 | 536 nM |
| CNC(=O)Oc1ccc(-c2cn3cc(C)ccc3n2)cc1 | 556 nM |
| CC1=CC2OC3CC4OC(=O)C=CC=CC(C(C)O)OCC(O)C5(C)OC5C(=O)OCC2(CC1O)C4(C)C31CO1 (configuration not stated) | 95 nM |
| Cc1c(C)c2ccc(OCC(=O)Nc3ccccn3)c(C)c2oc1=O | 64 nM |
| CCOC(=O)c1[nH]c2c(c1C)C(=O)CC(c1ccco1)C2 (configuration not stated) | 360 nM |
| Cc1nn(-c2ccccc2Cl)c(Cl)c1/C=N/Nc1nc2ccccc2s1 | < 38 nM |
| COc1ccc(/C=N/NC(=O)c2[nH]c3ccc(Br)cc3c2-c2ccccc2)cc1 | 209 nM |
| NC(=S)NN=Cc1nccc2ccccc12 | 2800 nM |
| C=CCN=C1NN=C(c2ccc3c(c2)OCCO3)CS1 | 411 nM |
| N#Cc1c(NC(=O)CSc2ncn[nH]2)sc2c1CCCC2 | 303 nM |
| COc1cccc2c1C(=O)c1c(O)c3c(c(O)c1C2=O)CC(O)(C(C)=O)CC3OC1CC(N(C)C)C(O)C(C)O1 (configuration not stated) | 165 nM |
| O=C(NCCc1ccccc1)c1ccc2c(c1)OCCCO2 | 187 nM |
| CN(C)c1ccc(Nc2nc(N)c3ccccc3n2)cc1 | 562 nM |
| COc1cc2c(c(OC)c1OC)-c1ccc(OC)c(=O)cc1[C@@H](N(C)CC#CCO)CC2 | 235 nM |
| CN(C)CCN1C(=O)c2cccc3cc([N+](=O)[O-])cc(c23)C1=O | 433 nM |

| Structure (SMILES) | AC50 |
| --- | --- |
| COC1C(O)C(C)OC(OC2CCC3(C)C(CCC4C3C(O)CC3(C)C(C5=CC(=O)OC5)CCC43O)C2)C1O (configuration not stated) | 150 nM |
| O=C(NNC(=O)c1ccccc1O)c1ccccc1O | 234 nM |
| CC1CCN(c2ccc(-c3cccc(NC(=O)C(F)(F)F)c3)nn2)CC1 | 194 nM |
| CC12CCC(O)CC1CCC1C2CCC2(C)C(C3=CC(=O)OC3)CCC12O (configuration not stated) | 230 nM |
| CCCCCCN1C=CC(=C2C(=O)c3ccccc3C2=O)C=C1 | 369 nM |
| CN(C)CCNc1ccc2ncn3c4ccc(O)cc4c(=O)c1c23 | 2470 nM |
| C[C@H]1O[C@@H](OC2CC[C@]3(C=O)[C@H]4CC[C@]5(C)[C@@H](C6=CC(=O)OC6)CC[C@]5(O)[C@@H]4CC[C@]3(O)C2)CC2OC(C)(C)OC21 (some centres not stated) | 123 nM |
| COc1ccc(C(=O)/C=C/Nc2ccccn2)cc1 | 369 nM |
| Cc1ccc2nc(-c3ccc4c(c3)OCCO4)cn2c1 | 110 nM |
| N#Cc1c(NC(=O)CSc2ncn[nH]2)sc2c1CCCCC2 | 82 nM |
| CN(CCO)c1ccc(/C=N/Nc2nncc3ccccc23)cc1 | 412 nM |
| COc1cccc(C(=O)O/N=C(\N)c2ccccn2)c1 | 448 nM |
| CCOC(=O)c1c(C)[nH]c(C(=O)N/N=C/c2ccc(Br)cc2)c1C | 378 nM |
| CCN(CCCl)c1cc(CN(C)C)cc(NC(=O)c2ccc(C(=O)Nc3cc(CN(C)C)cc(N(CC)CCCl)c3)cc2)c1 | 472 nM |
| CC1=CC2OC3CC4OC(=O)C=CC=CC(=O)OCCC(C)C(O)C(=O)OCC2(CC1O)C4(C)C31CO1 (configuration not stated) | < 38 nM |
| CN(NC(=O)c1ccccc1F)c1nc(C(F)(F)F)nc2ccccc12 | 1320 nM |
| O=c1oc2ccccc2cc1-c1cn(-c2ccccc2)c(=S)[nH]1 | 776 nM |
| C(=N\Nc1ccc2ccccc2n1)/c1ccc2c(c1)OCCO2 | 1220 nM |
| O=C(O)c1cccc(-c2noc(-c3cccc(Cl)c3)n2)c1 | 153 nM |
